Reference: US9617251B2, “Indanylaminopyridylcyclopropanecarboxylic acids, pharmaceutical compositions and uses thereof” (BOEHRINGER INGELHEIM INTERNATIONAL GMBH, priority 2015, dated 2017)
In brackets after ≈: the same amount, converted by molar mass.

Legend:
human GPR40 receptor = human GPR40 receptor (Homo sapiens, UniProt O14842); assay: IP1 accumulation measurements using the IPOne assay system (1321N1 cells stably expressing human GPR40 receptor); format: cell-based; conditions: 1321N1 cells expressing human GPR40, 1 h stimulation at 37° C.
human GPR40 receptor, sequence (O14842 whole entry): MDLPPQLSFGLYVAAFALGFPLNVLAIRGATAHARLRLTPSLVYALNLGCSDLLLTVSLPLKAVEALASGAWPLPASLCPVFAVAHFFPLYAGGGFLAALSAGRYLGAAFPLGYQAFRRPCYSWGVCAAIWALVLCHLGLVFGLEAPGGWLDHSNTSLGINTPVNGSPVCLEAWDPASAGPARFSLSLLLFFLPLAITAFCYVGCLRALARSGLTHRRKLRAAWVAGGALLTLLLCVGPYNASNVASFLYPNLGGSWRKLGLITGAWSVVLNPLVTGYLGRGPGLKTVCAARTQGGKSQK
Description: IP1 accumulation measurements using the IPOne assay system—1321N1 cells stably expressing human GPR40 receptor (Euroscreen, Belgium) are seeded 24 h before the assay in white 384-well plates in culture medium containing 10% FCS, 1% Na-Pyruvate and 400 μg/mL G418. IP1 is assayed according to the manufacturer's description (Cisbio Bioassays, France). In brief, the assay is started by substitution of the culture medium by stimulation buffer (Hepes 10 mM, CaCl2 1 mM, MgCl2 0.5 mM, KCl 4.2 mM, NaCl 146 mM, glucose 5.5 mM and LiCl 50 mM, pH 7.4). Cells are stimulated for 1 h at 37° C., 5% CO2 by addition of the compounds that are diluted in stimulation buffer containing LiCl. Assays are stopped by adding HTRF-conjugates (IP1-d2 and Anti-IP1 cryptate Tb) and lysis buffer, provided by the manufacturer. After an incubation time of 1 h at room temperature plates are measured using an EnVision™, Perkin Elmer. The obtained fluorescence ratios at 665/615 […] are then used to calculate the pEC50 values using Assay Explorer 3.3 Software (Accelrys, Inc.) by interpolation using an IP1 reference curve and subsequent sigmoidal curve fitting allowing for a variable hill slope.

[1] = Aqueous solubility in buffer vs acetonitrile/water (1/1), LC-UV; format: physicochemical; conditions: kinetic from dmso stock, buffer pH 2.2, 24 h shaking, 2.5% DMSO
Description: The aqueous solubility of the compounds of the invention is determined by comparing the amount dissolved in buffer to the amount in an acetonitrile/water (1/1) solution. Starting from a 10 mM DMSO stock solution aliquots are diluted with acetonitrile/water (1/1) or buffer, respectively. After 24 h of shaking, the solutions are filtrated and analyzed by LC-UV. The amount dissolved in buffer is compared to the amount in the acetonitrile solution.
Solubility is usually being measured from 0.001 to 0.125 mg/mL at a DMSO concentration of 2.5%. If more than 90% of the compound is dissolved in buffer, the value is marked with “>”.

[2] = biological target: T1, cytochrome P450 2C8-isoenzyme (Homo sapiens, UniProt P10632); assay: Inhibition of CYP-2C8 (deethylation of amodiaquine, human liver microsomes); format: in vitro ADME; conditions: CYP-2C8, human liver microsomes, amodiaquine 1 μM, 37° C.
T1 construct: from tissue; host or cells: human liver microsomes
T1 sequence (P10632 1-490): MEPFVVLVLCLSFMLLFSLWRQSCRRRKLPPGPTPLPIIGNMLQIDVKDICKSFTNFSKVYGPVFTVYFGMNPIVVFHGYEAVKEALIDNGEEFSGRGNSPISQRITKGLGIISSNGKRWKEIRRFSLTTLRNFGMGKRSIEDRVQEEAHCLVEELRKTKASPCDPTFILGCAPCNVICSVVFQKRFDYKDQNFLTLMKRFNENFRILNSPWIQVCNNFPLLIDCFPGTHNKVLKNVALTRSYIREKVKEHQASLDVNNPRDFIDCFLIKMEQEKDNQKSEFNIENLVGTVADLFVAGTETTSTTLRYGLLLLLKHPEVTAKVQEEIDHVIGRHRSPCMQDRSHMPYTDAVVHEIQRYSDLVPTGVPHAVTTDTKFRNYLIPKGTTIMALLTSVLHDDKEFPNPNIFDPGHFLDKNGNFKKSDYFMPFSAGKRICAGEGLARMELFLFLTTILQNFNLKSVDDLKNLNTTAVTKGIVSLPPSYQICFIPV
Description: The inhibition of cytochrome P450 2C8-isoenzyme catalyzed deethylation of amodiaquine by the test compound is assayed at 37° C. with human liver microsomes. All assays are carried out on a robotic system in 96 well plates. The final incubation volume contains TRIS buffer (0.1 M), MgCl2 (5 mM), human liver microsomes (0.05 mg/mL), amodiaquine (1 μM) and the test compound at five different concentrations or no compound (high control) in duplicate (e.g. highest concentration 10-50 μM with subsequent serial 1:4 dilutions). Following a short preincubation period, reactions are started with the cofactor (NADPH, 1 mM) and stopped by cooling the incubation down to 8° C. and subsequently by addition of one volume of acetonitrile. An internal standard solution—the stable isotope d5-desethylamodiaquine—is added after quenching of incubations. Peak area analyte (=metabolite formed) and internal standard is determined by LC-MS/MS. The resulting peak area ratio analyte to internal standard in these incubations is compared to a control activity containing no test compound. Within each of the assay runs, the IC50 of a positive control inhibitor (Montelukast) is determined. Experimental IC50 values are calculated by least square regression according to the following equation: % control activity=(100% control activity/(1+(I/IC50)S))−B with I=inhibitor concentration; S=slope factor; B=background activity (lower plateau of the inhibition curve)
(§1) If the inhibition of the reaction is already >50% at the lowest concentration of the test compound, the IC50 is assigned “<lowest concentration tested” (usually <0.4 μM). If the inhibition of the reaction is still <50% at the highest concentration of the test compound, the IC50 is assigned “>highest concentration tested” (usually >50 μM).

[3] = biological target: T2, cytochrome P450 2C9-isoenzyme (Homo sapiens, UniProt P11712); assay: Inhibition of CYP-2C9 (hydroxylation of diclofenac, human liver microsomes); format: in vitro ADME; conditions: CYP-2C9, human liver microsomes, diclofenac 10 μM, 37° C.
T2 construct: from tissue; host or cells: human liver microsomes
T2 sequence (P11712 whole entry): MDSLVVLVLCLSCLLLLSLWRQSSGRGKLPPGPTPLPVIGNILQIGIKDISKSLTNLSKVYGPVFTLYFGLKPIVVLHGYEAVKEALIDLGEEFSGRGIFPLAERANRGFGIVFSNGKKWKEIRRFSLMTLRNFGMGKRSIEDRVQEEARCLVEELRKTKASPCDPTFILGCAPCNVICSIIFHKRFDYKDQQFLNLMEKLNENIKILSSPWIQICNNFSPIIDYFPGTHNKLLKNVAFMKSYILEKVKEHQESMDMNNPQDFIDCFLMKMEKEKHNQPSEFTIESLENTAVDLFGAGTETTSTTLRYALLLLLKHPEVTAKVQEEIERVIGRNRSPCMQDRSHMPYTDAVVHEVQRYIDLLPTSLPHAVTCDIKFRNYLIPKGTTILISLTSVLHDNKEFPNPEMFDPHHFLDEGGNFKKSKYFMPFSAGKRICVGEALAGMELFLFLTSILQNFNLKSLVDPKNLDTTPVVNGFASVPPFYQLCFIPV
Description: The inhibition of cytochrome P450 2C9-isoenzyme catalyzed hydroxylation of diclofenac by the test compound is assayed at 37° C. with human liver microsomes. All assays are carried out on a robotic system in 96 well plates. The final incubation volume contains TRIS buffer (0.1 M), MgCl2 (5 mM), human liver microsomes (0.1 mg/mL), diclofenac (10 μM) and the test compound at five different concentrations or no compound (high control) in duplicate (e.g., highest concentration 10-50 μM with subsequent serial 1:4 dilutions). Following a short preincubation period, reactions are started with the cofactor (NADPH, 1 mM) and stopped by cooling the incubation down to 8° C. and subsequently by addition of one volume of acetonitrile. An internal standard solution—the stable isotope ^13C6-hydroxydiclofenac—is added after quenching of incubations. Peak area analyte (=metabolite formed) and internal standard is determined by LC-MS/MS. The resulting peak area ratio analyte to internal standard in these incubations is compared to a control activity containing no test compound. Within each of the assay runs, the IC50 of a positive control inhibitor (sulfaphenazole) is determined. Experimental IC50 values are calculated by least square regression according to the following equation: % control activity=(100% control activity/(1+(I/IC50)S))−B with I=inhibitor concentration; S=slope factor; B=background activity (lower plateau of the inhibition curve)
as §1

SMILES | EC50 (human GPR40 receptor) | solubility at 24 h [1] | IC50 [2] | IC50 [3]
Cc1cc(-c2cc(=O)n(C)cn2)cc(C)c1-c1ccc(F)c2c1CC[C@H]2Nc1ccc([C@H]2C[C@@H]2C(=O)O)cn1 [Example 45] | 0.005 µM | 86 µg/mL (≈ 164 µM) | 24 µM | > 50 µM
COc1cc(OC)c(-c2ccc(F)c3c2CC[C@H]3Nc2ccc([C@H]3C[C@@H]3C(=O)O)cn2)c(OC)c1 [Example 48] | 0.427 µM | > 107 µg/mL | > 50 µM | > 50 µM
Cc1ccc(Cl)c(-c2ccc(F)c3c2CC[C@H]3Nc2ccc([C@H]3C[C@@H]3C(=O)O)cn2)c1Cl [Example 51] | 0.007 µM | 56 µg/mL (≈ 119 µM) | 12 µM | 17 µM
COc1cc(OC)c(Cl)c(-c2ccc(F)c3c2CC[C@H]3Nc2ccc([C@H]3C[C@@H]3C(=O)O)cn2)c1Cl [Example 53] | 0.013 µM | 76 µg/mL (≈ 147 µM) | 11 µM | 14 µM
O=C(O)[C@H]1C[C@@H]1c1ccc(N[C@@H]2CCc3c(-c4c(F)cccc4F)ccc(F)c32)nc1 [Example 55] | 0.208 µM | 73 µg/mL (≈ 172 µM) | > 50 µM | > 50 µM
COc1cc(OC)c(F)c(-c2ccc(F)c3c2CC[C@H]3Nc2ccc([C@H]3C[C@@H]3C(=O)O)cn2)c1F [Example 57] | 0.107 µM | 99 µg/mL (≈ 204 µM) | 19 µM | 48 µM
O=C(O)[C@H]1C[C@@H]1c1ccc(N[C@@H]2CCc3c(-c4c(F)cc(OC5CC5)cc4F)ccc(F)c32)nc1 [Example 60] | 0.061 µM | 68 µg/mL (≈ 142 µM) | 25 µM | 9 µM
Cc1cc(OCC2CCOCC2)cc(C)c1-c1ccc(F)c2c1CC[C@H]2Nc1ccc([C@H]2C[C@@H]2C(=O)O)cn1 [Example 61] | 0.005 µM | 90 µg/mL (≈ 170 µM) | 15 µM | 33 µM
Cc1cc(-c2ccn(C)c(=O)n2)cc(C)c1-c1ccc(F)c2c1CC[C@H]2Nc1ccc([C@H]2C[C@@H]2C(=O)O)cn1 [Example 71] | 0.006 µM | 121 µg/mL (≈ 231 µM) | 18 µM | > 50 µM
Cc1cc(OCC2(O)CCSCC2)cc(C)c1-c1ccc(F)c2c1CC[C@H]2Nc1ccc([C@H]2C[C@@H]2C(=O)O)cn1 [Example 73] | 0.017 µM | 89 µg/mL (≈ 158 µM) | 20 µM | 45 µM
COc1c(F)c(F)c(-c2ccc(F)c3c2CC[C@H]3Nc2ccc([C@H]3C[C@@H]3C(=O)O)cn2)c(F)c1F [Example 76] | 0.003 µM | 104 µg/mL (≈ 212 µM) | 30 µM | 40 µM
